Laboratory results taken from patent US20220339180A1, “Methods And Compositions For Treating Viral Diseases Using Combination Of Drugs” (priority 2021, published 2022).
Read-outs that look alike come from different tables or passages of the source.

What was measured:
human Akt2 [1] = molecular target: T1, human Akt2 (Homo sapiens, UniProt P31751); experiment: ADP-Glo Kinase assay, human Akt2; assay type: biochemical; conditions: 500 nM compound, excess of ATP
CoV-2 RdRp = CoV-2 RdRp (Severe acute respiratory syndrome coronavirus 2, UniProt P0DTD1); assay type: biochemical, SARS-CoV-2
human Akt2 [2] = molecular target: T1, human Akt2; conditions: read-out: Km for ATP; human Akt2, previously reported studies; cited from earlier work
SARS-CoV-2 = assay type: cell-based
[3] = substrate: Nc1ncnc2c1ncn2[C@@H]1O[C@H](COP(=O)(O)OP(=O)(O)OP(=O)(O)O)[C@@H](O)[C@H]1O; experiment: purified protein, by the assay type; conditions: other: human Akt2

With `CN(C)S(=O)(=O)c1ccc2c(c1)/C(=C/c1cc3c([nH]1)CCCC3)C(=O)N2` [SU6656] the “inhibition of kinase activity of human Akt2” value (human Akt2 [1]) was “significantly inhibited” and the “inhibition of kinase like activity of CoV-2 RdRp” value (shortened to “inhibition … of CoV-2 RdRp”) (CoV-2 RdRp) was “significantly abrogated”.

For `Nc1ncnc2c1ncn2[C@@H]1O[C@H](COP(=O)(O)OP(=O)(O)OP(=O)(O)O)[C@@H](O)[C@H]1O` [ATP, Adenosine triphosphate], the Km (human Akt2 [2]) is listed as about 350 µM.

In the case of `NC(=O)c1ncn([C@@H]2O[C@H](COP(=O)(O)OP(=O)(O)OP(=O)(O)O)[C@@H](O)[C@H]2O)n1` [compound 122108, Ribavirin 5′-triphosphate], the “inhibition … of CoV-2 RdRp” value (CoV-2 RdRp; 500 nM compound, excess of ATP) is reported as “very little effects” and the “inhibition … of CoV-2 RdRp” value (CoV-2 RdRp; 1000 nM compound) is reported as “conspicuous inhibitions”.

In the case of `CNC(=O)c1cc(Oc2ccc(NC(=O)Nc3ccc(Cl)c(C(F)(F)F)c3)cc2)ccn1` [Sorafenib], the “cell survival of SARS-CoV-2 infected epithelial cells” value (SARS-CoV-2; 1, 5, 25 and 50 μM, concentrations similar to Remdesivir) is reported as “improves cell survival”, the “reduction in the infection” value (SARS-CoV-2; 1-50 μM, Remdesivir as control) is reported as “significant reduction in the infection” and the “clearing of virus from infected cells, single agent” value (SARS-CoV-2; Sorafenib 4 μM or remdesivir 1 μM alone) is reported as “have effect to clear the virus”. For the same molecule, the viral load (SARS-CoV-2; ex-vivo SARS-CoV-2 infection in cell line) was “significantly reduces viral load” and the “inhibition of kinase activity of human Akt2” value (human Akt2 [1]) was “significantly inhibited”.

With `CC(Cc1ccc(O)c(O)c1)C(C)Cc1ccc(O)c(O)c1` (stereo not drawn) [compound 4534, Nordihydroguaiaretic acid] the “inhibition … of CoV-2 RdRp” value (CoV-2 RdRp) was “failed to inhibit”.

B1: human Akt2 (Homo sapiens) (protein)
chain: MNEVSVIKEGWLHKRGEYIKTWRPRYFLLKSDGSFIGYKERPEAPDQTLPPLNNFSVAECQLMKTERPRPNTFVIRCLQWTTVIERTFHVDSPDEREEWMRAIQMVANSLKQRAPGEDPMDYKCGSPSDSSTTEEMEVAVSKARAKVTMNDFDYLKLLGKGTFGKVILVREKATGRYYAMKILRKEVIIAKDEVAHTVTESRVLQNTRHPFLTALKYAFQTHDRLCFVMEYANGGELFFHLSRERVFTEERARFYGAEIVSALEYLHSRDVVYRDIKLENLMLDKDGHIKITDFGLCKEGISDGATMKTFCGTPEYLAPEVLEDNDYGRAVDWWGLGVVMYEMMCGRLPFYNQDHERLFELILMEEIRFPRTLSPEAKSLLAGLLKKDPKQRLGGGPSDAKEVMEHRFFLSINWQDVVQKKLLPPFKPQVTSEVDTRYFDDEFTAQSITITPPDRYDSLGLLELDQRTHFPQFSYSASIRE
Molecule B1 has a Km [3] of 300 µM.
